Laboratory results taken from patent US7407794B2, “Biological control of plant diseases” (The Horticulture and Food Research Institute of New Zealand …, priority 2001, dated 2008).

Tested on: Botrytis cinerea
Assay: Necrotic leaf disc bioassay with interrupted wet period (laboratory)
Assay type: cell-based
Conditions: Table 2, necrotic kiwifruit leaf tissues, repeat bioassay
Protocol: Discs (dia. 21 mm) were cut from mature unsprayed grape or kiwifruit leaves selected at random and placed between sheets of cardboard. The discs were gently dried at 40° C. for approximately 9 hours and then washed under running water for 10 minutes to remove any soluble nutrients. The leaf discs were then blot dried once more on sterile paper towels, dried at 40° C. for 6 hours, then sealed in plastic specimen jars, prior to sterilization by gamma-irradiation (4Mrad).
Isolates were maintained on oatmeal agar (30 g finely ground oatmeal plus 20 g agar per litre of water) and incubated for 2 to 4 weeks at 20° C. illuminated according to a 12 hours day/night cycle. Fungal propagules were washed from the sporulating agar plates using sterile 0.01% (v/v) TWEEN®80 (polyoxyethylenesorbitan monooleate) in distilled water. […]
High humidity incubation was interrupted by transferring the leaf disks from the humidity chambers to open petri dishes containing 2 layers of sterile dry (Whatman) filter disks. […] The area of leaf disk tissue with B. cinerea sporulation was assessed visually. […]
Prior to analysis of variance, all data were arcsin transformed using an angular transformation to stabilise the variance and LSD values were calculated for purposes of mean separation […]

Which results are given for `CC(C)NC(=O)N1CC(=O)N(c2cc(Cl)cc(Cl)c2)C1=O` [iprodione]?
% coverage of necrotic leaf tissue by B. cinerea conidiophores: 20%; Antagonist efficacy, percentage reduction of B. cinerea conidiophores compared to the B. cinerea control treatment: 20%
